Laboratory results: patent publication US4818761A, “2-(4-pyridylaminomethyl)-benzimidazole derivatives having antiviral activity” (priority 1986, dated 1989)
Converted amounts (≈) assume the structure as drawn.

Tested on: coxsackievirus type B4 (CB4)
Assay: Inhibition of CB4 plaque formation in LLC-MK2 cells
Format: cell-based
Conditions: CI = CD50 (LLC-MK2)/IC50 (plaque)

Compound	CI CB4 (C)/(A)
c1ccc(-n2c(CNc3ccncc3)nc3ccccc32)cc1 [XXI]	943
Fc1cc2nc(CNc3ccncc3)[nH]c2cc1Cl [XXXV]	> 3
Cn1c(CNc2ccncc2)nc2ccc(Cl)cc21 [XXXIX]	> 1
Fc1ccc2[nH]c(CNc3ccncc3)nc2c1 [II]	29
Brc1ccc(-n2c(CNc3ccncc3)nc3ccccc32)cc1 [LX]	> 100
Fc1ccc(-n2c(CNc3ccncc3)nc3ccccc32)cc1 [XXIII]	> 2,410
CCCCn1c(CNc2ccncc2)nc2ccccc21 [XV]	> 5,405
Cc1ccc(-n2c(CNc3ccncc3)nc3ccccc32)cc1 [XXII]	2,946
CCCCCCCCn1c(CNc2ccncc2)nc2ccccc21 [XIX]	24
CCn1c(CNc2ccncc2)nc2ccccc21 [XI]	1,768
CC(C)CCn1c(CNc2ccncc2)nc2ccccc21.Cl [L, 1-isoamyl-2-(4-pyridylaminomethyl)benzimidazole hydrochloride]	4,159

Same assay, conditions: Coxsackievirus; plaque reduction, LLC-MK2 cells, 37° C.

Compound	IC50
c1ccc(-n2c(CNc3ccncc3)nc3ccccc32)cc1 [XXI]	1.5 µg/mL (≈ 4.99 µM)
Fc1cc2nc(CNc3ccncc3)[nH]c2cc1Cl [XXXV]	34 µg/mL (≈ 123 µM)
Cn1c(CNc2ccncc2)nc2ccc(Cl)cc21 [XXXIX]	82 µg/mL (≈ 301 µM)
Fc1ccc2[nH]c(CNc3ccncc3)nc2c1 [II]	6 µg/mL (≈ 24.8 µM)
Brc1ccc(-n2c(CNc3ccncc3)nc3ccccc32)cc1 [LX]	1 µg/mL (≈ 2.64 µM)
Fc1ccc(-n2c(CNc3ccncc3)nc3ccccc32)cc1 [XXIII]	0.83 µg/mL (≈ 2.61 µM)
CCCCn1c(CNc2ccncc2)nc2ccccc21 [XV]	0.37 µg/mL (≈ 1.32 µM)
Cc1ccc(-n2c(CNc3ccncc3)nc3ccccc32)cc1 [XXII]	0.48 µg/mL (≈ 1.53 µM)
CCCCCCCCn1c(CNc2ccncc2)nc2ccccc21 [XIX]	14.8 µg/mL (≈ 44 µM)
CCn1c(CNc2ccncc2)nc2ccccc21 [XI]	3.2 µg/mL (≈ 12.7 µM)
CC(C)CCn1c(CNc2ccncc2)nc2ccccc21.Cl [L, 1-isoamyl-2-(4-pyridylaminomethyl)benzimidazole hydrochloride]	0.34 µg/mL

Tested on: rhinovirus type 14 (HRV14)
Assay: Inhibition of HRV14 plaque formation in HeLa cells
Format: cell-based
Conditions: CI = CD50 (HeLa)/IC50 (plaque)

Compound	CI HRV14 (D)/(B)
Fc1ccc2[nH]c(CNc3ccncc3)nc2c1 [II]	4
Brc1ccc(-n2c(CNc3ccncc3)nc3ccccc32)cc1 [LX]	> 3

Same assay, conditions: Enterovirus, HRV14; plaque reduction, HeLa cells, 33° C.

Compound	IC50
c1ccc(-n2c(CNc3ccncc3)nc3ccccc32)cc1 [XXI]	> 50 µg/mL
Fc1cc2nc(CNc3ccncc3)[nH]c2cc1Cl [XXXV]	15.5 µg/mL (≈ 56 µM)
Cn1c(CNc2ccncc2)nc2ccc(Cl)cc21 [XXXIX]	> 50 µg/mL
Fc1ccc2[nH]c(CNc3ccncc3)nc2c1 [II]	14.5 µg/mL (≈ 59.9 µM)
Brc1ccc(-n2c(CNc3ccncc3)nc3ccccc32)cc1 [LX]	39.9 µg/mL (≈ 105 µM)
Fc1ccc(-n2c(CNc3ccncc3)nc3ccccc32)cc1 [XXIII]	30 µg/mL (≈ 94.2 µM)
CCCCn1c(CNc2ccncc2)nc2ccccc21 [XV]	> 50 µg/mL
Cc1ccc(-n2c(CNc3ccncc3)nc3ccccc32)cc1 [XXII]	38 µg/mL (≈ 121 µM)
CC(C)CCn1c(CNc2ccncc2)nc2ccccc21.Cl [L, 1-isoamyl-2-(4-pyridylaminomethyl)benzimidazole hydrochloride]	> 100 µg/mL

Tested on: not listed separately
Assay: in vitro
Conditions: monkey, llc-mk2 cells

Compound	CC50
c1ccc(-n2c(CNc3ccncc3)nc3ccccc32)cc1 [XXI]	1410 µg/mL (≈ 4710 µM)
Fc1cc2nc(CNc3ccncc3)[nH]c2cc1Cl [XXXV]	> 100 µg/mL
Cn1c(CNc2ccncc2)nc2ccc(Cl)cc21 [XXXIX]	> 100 µg/mL
Fc1ccc2[nH]c(CNc3ccncc3)nc2c1 [II]	177 µg/mL (≈ 730 µM)
Brc1ccc(-n2c(CNc3ccncc3)nc3ccccc32)cc1 [LX]	> 100 µg/mL
Fc1ccc(-n2c(CNc3ccncc3)nc3ccccc32)cc1 [XXIII]	> 2000 µg/mL
CCCCn1c(CNc2ccncc2)nc2ccccc21 [XV]	> 2000 µg/mL
Cc1ccc(-n2c(CNc3ccncc3)nc3ccccc32)cc1 [XXII]	1410 µg/mL (≈ 4500 µM)
CCCCCCCCn1c(CNc2ccncc2)nc2ccccc21 [XIX]	354 µg/mL (≈ 1050 µM)
CCn1c(CNc2ccncc2)nc2ccccc21 [XI]	5660 µg/mL (≈ 22400 µM)
CC(C)CCn1c(CNc2ccncc2)nc2ccccc21.Cl [L, 1-isoamyl-2-(4-pyridylaminomethyl)benzimidazole hydrochloride]	1410 µg/mL

Tested on: enterovirus type 70 (EV70)
Assay: Inhibition of EV70 plaque formation in LLC-MK2 cells
Format: cell-based
Conditions: CI = CD50 (LLC-MK2)/IC50 (plaque)

Compound	CI EV70 (C)/(A)
c1ccc(-n2c(CNc3ccncc3)nc3ccccc32)cc1 [XXI]	943
Fc1cc2nc(CNc3ccncc3)[nH]c2cc1Cl [XXXV]	> 15
Cn1c(CNc2ccncc2)nc2ccc(Cl)cc21 [XXXIX]	> 2
Fc1ccc2[nH]c(CNc3ccncc3)nc2c1 [II]	126
Brc1ccc(-n2c(CNc3ccncc3)nc3ccccc32)cc1 [LX]	> 53
Fc1ccc(-n2c(CNc3ccncc3)nc3ccccc32)cc1 [XXIII]	> 1,818
CCCCn1c(CNc2ccncc2)nc2ccccc21 [XV]	> 1,429
Cc1ccc(-n2c(CNc3ccncc3)nc3ccccc32)cc1 [XXII]	2,719
CC(C)CCn1c(CNc2ccncc2)nc2ccccc21.Cl [L, 1-isoamyl-2-(4-pyridylaminomethyl)benzimidazole hydrochloride]	1,010

Same assay, conditions: Enterovirus D; plaque reduction, LLC-MK2 cells, 33° C.

Compound	IC50
c1ccc(-n2c(CNc3ccncc3)nc3ccccc32)cc1 [XXI]	1.5 µg/mL (≈ 4.99 µM)
Fc1cc2nc(CNc3ccncc3)[nH]c2cc1Cl [XXXV]	6.8 µg/mL (≈ 24.6 µM)
Cn1c(CNc2ccncc2)nc2ccc(Cl)cc21 [XXXIX]	50 µg/mL (≈ 183 µM)
Fc1ccc2[nH]c(CNc3ccncc3)nc2c1 [II]	1.4 µg/mL (≈ 5.78 µM)
Brc1ccc(-n2c(CNc3ccncc3)nc3ccccc32)cc1 [LX]	1.9 µg/mL (≈ 5.01 µM)
Fc1ccc(-n2c(CNc3ccncc3)nc3ccccc32)cc1 [XXIII]	1.1 µg/mL (≈ 3.46 µM)
CCCCn1c(CNc2ccncc2)nc2ccccc21 [XV]	1.4 µg/mL (≈ 4.99 µM)
Cc1ccc(-n2c(CNc3ccncc3)nc3ccccc32)cc1 [XXII]	0.52 µg/mL (≈ 1.65 µM)
CC(C)CCn1c(CNc2ccncc2)nc2ccccc21.Cl [L, 1-isoamyl-2-(4-pyridylaminomethyl)benzimidazole hydrochloride]	1.4 µg/mL

Tested on: enterovirus type 70 (EV70)
Assay: Inhibition of EV70 cytopathogenic effect (CPE) in LLC-MK2 cells
Format: cell-based
Conditions: Enterovirus D; * Virus CPE inhibition assay, LLC-MK2 cells, 33° C.

Compound	IC50
CCCCCCCCn1c(CNc2ccncc2)nc2ccccc21 [XIX]	> 100 µg/mL
CCn1c(CNc2ccncc2)nc2ccccc21 [XI]	> 100 µg/mL

Tested on: poliovirus type 2 (Polio2)
Assay: microbe, parasite or virus in culture
Format: cell-based
Conditions: CI = CD50 (LLC-MK2)/IC50 (plaque)

Compound	CI Polio2 (C)/(A)
c1ccc(-n2c(CNc3ccncc3)nc3ccccc32)cc1 [XXI]	29
Fc1ccc(-n2c(CNc3ccncc3)nc3ccccc32)cc1 [XXIII]	> 256
CCCCn1c(CNc2ccncc2)nc2ccccc21 [XV]	> 625
CC(C)CCn1c(CNc2ccncc2)nc2ccccc21.Cl [L, 1-isoamyl-2-(4-pyridylaminomethyl)benzimidazole hydrochloride]	329

Same assay, conditions: Enterovirus C, LLC-MK2, read-out: IC50 Polio2

Compound	IC50
c1ccc(-n2c(CNc3ccncc3)nc3ccccc32)cc1 [XXI]	48 µg/mL (≈ 160 µM)
Fc1cc2nc(CNc3ccncc3)[nH]c2cc1Cl [XXXV]	> 100 µg/mL
Cn1c(CNc2ccncc2)nc2ccc(Cl)cc21 [XXXIX]	> 100 µg/mL
Fc1ccc2[nH]c(CNc3ccncc3)nc2c1 [II]	> 25 µg/mL
Brc1ccc(-n2c(CNc3ccncc3)nc3ccccc32)cc1 [LX]	> 50 µg/mL
Fc1ccc(-n2c(CNc3ccncc3)nc3ccccc32)cc1 [XXIII]	7.8 µg/mL (≈ 24.5 µM)
CCCCn1c(CNc2ccncc2)nc2ccccc21 [XV]	3.2 µg/mL (≈ 11.4 µM)
Cc1ccc(-n2c(CNc3ccncc3)nc3ccccc32)cc1 [XXII]	> 10 µg/mL
CC(C)CCn1c(CNc2ccncc2)nc2ccccc21.Cl [L, 1-isoamyl-2-(4-pyridylaminomethyl)benzimidazole hydrochloride]	4.3 µg/mL

Tested on: not listed separately
Assay: in vitro
Conditions: human, hela cells

Compound	CC50
Fc1ccc2[nH]c(CNc3ccncc3)nc2c1 [II]	56.2 µg/mL (≈ 232 µM)
Brc1ccc(-n2c(CNc3ccncc3)nc3ccccc32)cc1 [LX]	> 100 µg/mL
